“Also recorded” adds a separate entry of the source.
How the values were obtained:
[1] = system: mice; assay: Marble burying test (animal model of anxiety states); type: in vivo; settings: 3 mg/kg subcutaneously each substance, individually or combined at the same dose; 30 minutes test; FIG. 3
Procedure: A typical animal model of anxiety states is the “marble burying test” (for example Njung'e and Handley, Br J Pharmacol 1991, 104: 105-112), which has, in particular, specificity for obsessive-compulsive disorders and obsessive-compulsive spectrum disorders. The experimental device consists of a cube-shaped box open at the top in which 25 clear glass marbles are arranged at uniform separations on a 5 cm deep layer of sawdust. Mice are placed individually in the test box for 30 minutes. The number of marbles buried in the sawdust during the test duration of 30 minutes serves as a measure of anxiety. Untreated mice bury the most marbles in the sawdust, anxiolytics reduce the number of buried marbles.

[2] = system: extracellular level of serotonin (5-HT) in the brain; settings: fluoxetine alone, even at a relatively high dose; literature (Artigas et al.); cited from earlier work
[3] = system: extracellular 5-HT level in the frontal cortex; assay: Microdialysis studies: extracellular 5-HT level in the frontal cortex of rats; type: in vivo
[4] = system: rats; assay: Forced swimming test (animal model of depression); type: in vivo
Procedure: A typical animal model of depression is the “forced swimming test” (R. D. Porsolt et al., Nature 1977; 266(5604): 730-732), which is carried out with rats. This model is based on the behaviour known as “behavioural despair”, which the animals show in a hopeless situation known to them: If the rats are placed in a water-filled vessel (usually for 15 minutes) from which they cannot escape, they cease their attempts to escape from the situation after a certain time and remain in immobility or make only the most necessary swimming movements. If the rats are subjected to this situation again the next day, they recognise the hopelessness of the situation and remain in immobility for the majority of the time, and the time which the animals spend in immobility (which is regarded as surrogate for depression) during the 5-minute test duration serves as a measure of the depression. Anti-depressants shorten this immobility time. Fluoxetine (5 mg/kg perorally) and 2-BFI (3 and 10 mg/kg perorally) are administered—individually or combined—either in accordance with a repeated acute scheme (fluoxetine 24 h, 5 h and 2 h; 2-BFI 24 h, 5 h and 1 h before commencement of the test) or in accordance with a subchronic scheme (fluoxetine or 2-BFI once daily for 7 days, on the final day fluoxetine 2 h and 2-BFI 1 h before commencement of the test).

| SMILES | number of buried marbles compared with vehicle-treated mice [1] | approximately three-fold increase of the extracellular 5-HT level [2] | effect on the extracellular 5-HT level ([3]; fluoxetine alone, 10 mg/kg intraperitoneally, FIG. 2, 10 mg/kg) | immobility phase ([4]; repeated acute scheme, fluoxetine alone 5 mg/kg perorally, 24 h, 5 h and 2 h before test, FIG. 4) | immobility phase ([4]; subchronic scheme, once daily for 7 days, fluoxetine alone 5 mg/kg perorally, FIG. 5) | effect on the extracellular 5-HT level in the frontal cortex ([3]; 2-BFI alone, 20 mg/kg subcutaneously, FIG. 1) | immobility phase ([4]; repeated acute scheme, 2-BFI alone 3 and 10 mg/kg perorally, 24 h, 5 h and 1 h before test, FIG. 4) | immobility phase ([4]; subchronic scheme, once daily for 7 days, 2-BFI alone 3 and 10 mg/kg perorally, FIG. 5) |
| --- | --- | --- | --- | --- | --- | --- | --- | --- |
| CNCCC(Oc1ccc(C(F)(F)F)cc1)c1ccccc1 (stereo not drawn) [fluoxetine] | reduced the number of buried marbles only slightly | cannot be achieved | slightly raises; also recorded: only a slight increase | only a negligible effect | Virtually identical effects | – | – | – |
| c1ccc2oc(C3=NCCN3)cc2c1 [2-BFI, 2-(2-benzofuranyl)-2-imidazoline] | reduced the number of buried marbles only slightly | – | – | – | – | no effect | does not reduce the immobility phase | Virtually identical effects |
